Publication PMC2363545 (British Journal of Cancer, 2000)
“And” between values parts separate entries of the source, which are not always exact repeats. Equal entries are not always repeated.

Assays:
advanced breast cancer = conditions: in vivo
DNA-topoisomerase I = DNA-topoisomerase I (Homo sapiens, UniProt P11387); format: biochemical
[1] = mouse, in vivo
[2] = tested on: topoisomerase II expression in NIH3T3 cells
[3] = tested on: liver metastases (murine T50/80 breast); design: species or system mice; conditions: mouse, in vivo
[4] = tested on: advanced head and neck cancer; conditions: in vivo
cervix cancer = conditions: in vivo
[5] = in vivo
carcinoma of cervix = conditions: in vivo
metastatic breast cancer = conditions: in vivo
VB6 and H357 SCC cells = format: cell-based, human
metastatic RCC = tested on: metastatic RCC; design: species or system human; conditions: in vivo, po
SCLC = conditions: in vivo
[6] = in vivo; remark: listed apart in the source
[7] = tested on: NQO2-transfected rodent or non-transfected human tumor cell lines
[8] = in vivo; remark: listed apart in the source
[9] = in vivo; remark: listed apart in the source
[10] = molecular target: reduced-folate carrier (RFC) (Homo sapiens, UniProt P41440); conditions: read-out: Km for the RFC
breast cancer cell lines [11] = tested on: breast cancer cell lines
breast cancer cell lines [12] = conditions: cited from earlier work
[13] = in vivo; remark: listed apart in the source
anal carcinoma = conditions: in vivo

Chain of DNA-topoisomerase I (P11387 whole entry): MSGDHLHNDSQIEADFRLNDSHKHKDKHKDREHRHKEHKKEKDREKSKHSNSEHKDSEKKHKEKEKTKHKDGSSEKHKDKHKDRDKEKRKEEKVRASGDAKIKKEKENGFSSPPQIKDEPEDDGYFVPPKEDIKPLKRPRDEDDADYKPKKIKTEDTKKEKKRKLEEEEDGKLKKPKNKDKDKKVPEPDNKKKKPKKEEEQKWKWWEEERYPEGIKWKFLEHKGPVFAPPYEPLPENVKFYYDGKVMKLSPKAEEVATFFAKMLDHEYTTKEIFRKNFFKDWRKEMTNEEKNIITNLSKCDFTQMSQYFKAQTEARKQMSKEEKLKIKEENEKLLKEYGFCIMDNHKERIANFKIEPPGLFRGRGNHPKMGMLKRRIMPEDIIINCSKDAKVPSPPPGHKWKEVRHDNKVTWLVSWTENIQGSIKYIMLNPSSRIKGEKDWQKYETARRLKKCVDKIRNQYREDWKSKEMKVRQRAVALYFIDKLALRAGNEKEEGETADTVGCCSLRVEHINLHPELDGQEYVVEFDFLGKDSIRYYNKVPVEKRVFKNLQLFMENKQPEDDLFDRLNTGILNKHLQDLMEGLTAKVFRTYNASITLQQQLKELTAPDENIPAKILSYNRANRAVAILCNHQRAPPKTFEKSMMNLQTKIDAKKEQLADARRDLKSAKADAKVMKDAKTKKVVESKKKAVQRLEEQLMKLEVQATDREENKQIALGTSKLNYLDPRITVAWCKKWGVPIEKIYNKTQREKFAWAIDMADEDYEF
Chain of reduced-folate carrier (RFC) (P41440 whole entry): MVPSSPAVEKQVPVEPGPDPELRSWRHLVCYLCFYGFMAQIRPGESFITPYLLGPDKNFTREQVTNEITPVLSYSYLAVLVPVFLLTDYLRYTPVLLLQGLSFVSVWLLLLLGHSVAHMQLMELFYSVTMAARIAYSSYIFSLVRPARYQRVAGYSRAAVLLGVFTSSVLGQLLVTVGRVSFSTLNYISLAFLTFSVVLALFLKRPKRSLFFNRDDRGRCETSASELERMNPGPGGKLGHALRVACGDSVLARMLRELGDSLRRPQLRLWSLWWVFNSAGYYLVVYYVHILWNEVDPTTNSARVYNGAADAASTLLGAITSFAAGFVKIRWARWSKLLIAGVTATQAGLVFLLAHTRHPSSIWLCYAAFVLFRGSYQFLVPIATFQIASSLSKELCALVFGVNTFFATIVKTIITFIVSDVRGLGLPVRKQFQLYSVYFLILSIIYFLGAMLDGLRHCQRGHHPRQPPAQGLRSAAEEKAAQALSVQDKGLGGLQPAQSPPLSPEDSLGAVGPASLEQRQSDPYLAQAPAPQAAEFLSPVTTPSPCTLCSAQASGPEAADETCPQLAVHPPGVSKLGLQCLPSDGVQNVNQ

CC(C)(C#N)c1cc(Cn2cncn2)cc(C(C)(C)C#N)c1 [AN]
OR (CR+PR) (advanced breast cancer): 29% | median TTP (advanced breast cancer): 8.5 months and 10.7 months | thromboembolic events (advanced breast cancer): 4.5% | vaginal bleeding (advanced breast cancer): 1.2%

CC[C@@]1(O)C(=O)OCc2c1cc1n(c2=O)Cc2cc3ccccc3nc2-1 [camptothecin]
nicked DNA / cleavage (DNA-topoisomerase I): 90%

Cn1cnc2c(NCc3ccccc3)nc(NCCO)nc21 [olomoucine]
correlation of PK parameters, combination vs alone (spearman r) [1]: 0.90

COc1cc2c(c(OC)c1OC)-c1ccc(O)cc1[C@@H](NC(C)=O)CC2 [N-acetylcolchinol]
concentrations at which toxicity/antiproliferative effects occur (HUVECs): > 100 M

CCOc1ccc(-c2nc3ccc(-c4nc5ccc(N6CCN(C)CC6)cc5[nH]4)cc3[nH]2)cc1 [Hoechst 33342]
expression of top2 at confluence [2]: increased expression

COc1ccc(/C=C\c2cc(OC)c(OC)c(OC)c2)cc1O [combretastatin A4]
average decrease in tumour volume [3]: 30%

C[C@]12CC[C@@H]3c4ccc(O)cc4CC[C@H]3[C@@H]1CC[C@@H]2O [E2, Oestradiol]
induction of integrin 1 expression (MCF-7): 1.7 fold | reduction of integrin 1 expression (MCF-7): 29%

Oc1cccc(-c2c3nc(c(-c4cccc(O)c4)c4ccc([nH]4)c(-c4cccc(O)c4)c4nc(c(-c5cccc(O)c5)c5ccc2[nH]5)CC4)C=C3)c1 [Foscan]
neurotoxicity [4]: No specific neurotoxicity | tumour effect [4]: consistent tumour necrosis

N.N.[Cl][Pt][Cl] [cisplatin]
grade 3 or severe (grade 4) neutropaenia (cervix cancer): 27% | some degree of neutropaenia (cervix cancer): 70 % of patients | thrombocytopaenia (cervix cancer): 12% | hypomagnesaemia [5]: 14 % of all chemotherapy cycles | general malaise (carcinoma of cervix): 56%

CC(=O)O[C@@]12CO[C@@H]1C[C@H](O)[C@@]1(C)C(=O)[C@H](O)C3=C(C)[C@@H](OC(=O)[C@H](O)[C@@H](NC(=O)OC(C)(C)C)c4ccccc4)C[C@@](O)([C@@H](OC(=O)c4ccccc4)[C@H]21)C3(C)C [TAX]
median survival (metastatic breast cancer): 204 days | patients requiring admission due to neutropenic sepsis (metastatic breast cancer): 40% | patients showing response (metastatic breast cancer): 53%

CC/C(=C(\c1ccccc1)c1ccc(OCCN(C)C)cc1)c1ccccc1 [TAM]
OR (CR+PR) (advanced breast cancer): 27% | median TTP (advanced breast cancer): 7.0 months and 6.4 months | thromboembolic events (advanced breast cancer): 7.6% | vaginal bleeding (advanced breast cancer): 2.9%

COc1c(C[C@@H](C)OC(=O)Oc2ccc(O)cc2)c2c3c(C[C@@H](C)OC(=O)c4ccccc4)c(OC)c(=O)c4c(O)cc(OC)c(c5c(OC)cc(O)c(c1=O)c52)c43 [Calphostin C]
VB6 cell migration reduced to (VB6 and H357 SCC cells): 7.8%

O=C1CCC(N2C(=O)c3ccccc3C2=O)C(=O)N1 (stereo not shown) [Thalidomide]
response rate (metastatic RCC): 10%

C[C@@H](O)[C@@H]1NC(=O)[C@H](CCCCN)NC(=O)[C@@H](Cc2c[nH]c3ccccc23)NC(=O)[C@H](Cc2ccccc2)NC(=O)[C@@H](NC(=O)[C@H](N)Cc2ccccc2)CSSC[C@@H](C(=O)N[C@H](CO)[C@@H](C)O)NC1=O [Octreotide]
neutropenic pyrexia (SCLC): 9 % of treatment cycles

O=P(O)(O)C(O)(Cn1ccnc1)P(=O)(O)O [zoledronate]
proportion of apoptotic cells (MCF7 cells): significant increase

COc1cc(/C=C/C(=O)CC(=O)/C=C/c2ccc(O)c(OC)c2)ccc1O [curcumin, diferuloylmethane]
metabolism (hepatocytes): metabolised to THC, HHC and HHCO

NC(=O)c1cc(N2CC2)c([N+](=O)[O-])cc1[N+](=O)[O-] [CB1954, 5-(aziridin-l-yl)-2,4-dinitrobenzamide]
drug unchanged in the urine [6]: < 5% | median elimination half-life [6]: 51 min | time serum levels greater than 0.1 µM [6]: more than 4 hours | time serum levels greater than 1 M [6]: 2 h | maximum tolerated dose (MTD) ([6]; iv): 37.5 mg/m2 | increase in CB 1954 cytotoxicity in the presence of NRH [7]: 100-3000 fold

carboplatin
AUC achieved, mean standard deviation [8]: 11420 % of target | Grade 1 reaction [9]: 45 % of patients | HSR on rechallenge with a platinum compound [9]: 66% | grade II reaction [9]: 25 % of patients | grade III reaction [9]: 30 % of patients | incidence of HSR [9]: 10.5% | mean duration of HSR [9]: 44 min | mean time interval between initial exposure and HSR [9]: 26.5 months | mean time of onset of symptoms [9]: 14.5 min | overall incidence of HSR [9]: 4.5%

CC[C@H](CO)Nc1nc(NCc2ccccc2)c2ncn(C(C)C)c2n1 [roscovitine]
cross-resistance of HCT116/8FP cells (colorectal cell lines): no cross-resistance | correlation of PK parameters, combination vs alone (spearman r) [1]: 0.99 | ranking of AUC and clearance [1]: highest AUC and the lowest clearance

C#CCN(Cc1cc2c(=O)[nH]c(C)nc2cc1C)c1ccc(C(=O)N[C@@H](CCc2nnn[nH]2)C(=O)O)c(F)c1 [ZD9331]
Km [10]: 1000 to 2000 nM

COc1cc2c(cc1OS(N)(=O)=O)CC[C@@H]1[C@@H]2CC[C@]2(C)C(=O)CC[C@@H]12 [2-MeOEMATE, 2-Methoxyestrone-3-O-Sulfamate]
fold more potent than parent compounds (breast cancer cell lines [11]): > 10 fold | effect on tubulin assembly (tubulin): inhibited the ability of paclitaxel to promote tubulin assembly | G2/M arrest in breast cancer cells in vitro (breast cancer cell lines [12]): induced G2/M arrest

O=c1[nH]cc(F)c(=O)[nH]1 [5-FU]
Kelim [13]: 3.7 0.8 hr-1 | PD (anal carcinoma): 4% | PR (anal carcinoma): 22% | acute skin toxicity grade 3 (anal carcinoma): 96% | clinical CR (anal carcinoma): 74%
